Marks after values point to notes of the source that are not given here.
Assays:
Format in all cases: in vivo
Conditions in all cases: 100 = 100% disease control
[1] = tested on: Puccinia recondita f. sp. tritici; assay: Test I: wheat leaf rust on wheat seedlings, sprayed the day before inoculation, visual disease rating
In short: (§1)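 Ratings reflect a 200 ppm spray (≈500 g/ha) unless marked as 40 ppm. Plants were sprayed to run-off. The spray suspension was acetone/purified water 50/50 containing 250 ppm Trem 014, after first dissolving compound in acetone at 3% of final volume.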

[2] = tested on: Erysiphe graminis f. sp. tritici; assay: Test J: wheat powdery mildew on wheat seedlings, sprayed the day before inoculation, visual disease rating
In short: as §1

[3] = tested on: Botrytis cinerea; assay: Test C: tomato Botrytis on tomato seedlings, sprayed the day before inoculation, visual disease rating
In short: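 Disease scored by eye on tomato seedlings inoculated with Botrytis cinerea a day after treatment. Treatment was a run-off spray at 200 ppm (equivalent to 500 g/ha), or 40 ppm where marked, in acetone/water carrying 250 ppm Trem 014.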

[4] = tested on: Septoria nodorum; assay: Test F: wheat glume blotch on wheat seedlings, sprayed the day before inoculation, visual disease rating
In short: as §1

[5] = tested on: Alternaria solani; assay: Test D: tomato early blight, sprayed the day before inoculation, visual disease rating
In short: as §1

[6] = tested on: Puccinia recondita f. sp. tritici; assay: Test H: wheat leaf rust, test suspension sprayed after inoculation of wheat seedlings, visual disease rating
In short: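 Wheat seedlings inoculated with P. recondita spores, held 24 h saturated at 20 °C, then 2 days in growth chamber at 20 °C; compound suspension (acetone/water with Trem 014) sprayed to run-off afterwards. Rated visually; 200 ppm (≈500 g/ha) unless marked *, which denotes 40 ppm.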

[7] = tested on: Septoria tritici; assay: Test G: wheat leaf blotch on wheat seedlings, sprayed the day before inoculation, visual disease rating
In short: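 Wheat seedlings were sprayed with compound suspensions, 200 ppm unless starred (40 ppm). After next-day spore inoculation, plants spent 48 h saturated at 24° C, then 19 days at 20° C, when disease was rated visually.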

[8] = 40 ppm (marked *), 0 = no control
[9] = 200 ppm, 0 = no control relative to controls

| Structure (SMILES) | Test I disease control rating [1, 9] [%] | Test J disease control rating [2, 9] [%] | Test C disease control rating [3, 9] [%] | Test F disease control rating [4, 9] [%] | Test D disease control rating [5, 9] [%] | Test H disease control rating [6, 9] [%] | Test G disease control rating [7, 9] [%] | further results |
| --- | --- | --- | --- | --- | --- | --- | --- | --- |
| Fc1ccc(F)c(-c2c(Cl)ncn2Cc2ccc(Cl)cc2)c1F [compound 266] | – | – | – | – | – | – | – | Test I disease control rating ([1]; 200 ppm, 0 = no control): 99%; Test J disease control rating ([2]; 200 ppm, 0 = no control): 99%; Test C disease control rating ([3]; 200 ppm, 0 = no control): 100%; Test F disease control rating ([4]; 200 ppm, 0 = no control): 97%; Test D disease control rating ([5]; 200 ppm, 0 = no control): 100%; Test H disease control rating ([6]; 200 ppm, 0 = no control): 98%; Test G disease control rating ([7]; 200 ppm, 0 = no control): 94% |
| Cc1nc(Br)c(-c2c(F)cccc2F)n1-c1ccc2ccccc2c1 [compound 336] | – | – | – | – | – | – | – | Test I disease control rating [1, 8]: 74* %; Test J disease control rating [2, 8]: 87* %; Test C disease control rating [3, 8]: 99* %; Test F disease control rating [4, 8]: 99* %; Test D disease control rating [5, 8]: 88* %; Test H disease control rating [6, 8]: 0* %; Test G disease control rating [7, 8]: 96* % |
| CN(C)c1ccc(-n2cnc(Cl)c2-c2c(F)cccc2F)cc1 [compound 635] | – | – | – | – | – | – | – | Test I disease control rating ([1]; 40 ppm (marked *)): 39* %; Test J disease control rating ([2]; 40 ppm (marked *)): 0* %; Test C disease control rating ([3]; 40 ppm (marked *)): 99* %; Test F disease control rating ([4]; 40 ppm (marked *)): 0* %; Test D disease control rating ([5]; 40 ppm (marked *)): 0* %; Test H disease control rating ([6]; 40 ppm (marked *)): 0* %; Test G disease control rating ([7]; 40 ppm (marked *)): 81* % |
| COc1cc(Cl)cc(Cl)c1-c1c(Cl)nc(Cl)n1-c1ccc(Cl)c(F)c1 [compound 438] | 0 | 0 | 0 | 0 | 0 | 0 | – | Test G disease control rating [7, 8]: 86* % |
| COc1cc(F)c(-c2c(Cl)nc(C)n2-c2ccc(F)c(F)c2)c(F)c1 [compound 499] | 100 | 100 | 99 | 100 | 100 | 100 | 93 | – |
| COc1cc(F)c(-c2c(Cl)ncn2-c2ccc(OC(F)(F)F)cc2)c(F)c1 [compound 559] | 88 | 98 | 94 | 0 | 41 | 29 | 95 | – |
| Cc1nc(Cl)c(-c2c(F)cc(F)cc2F)n1-c1cccc(F)c1 [compound 370] | 100 | 100 | 99 | 87 | 100 | 100 | 89 | – |
| COc1cc(F)c(-c2c(Br)nc(Cl)n2-c2ccc(C(F)(F)F)nc2)c(F)c1 [compound 706] | 86 | 100 | 57 | 0 | 100 | 25 | 99 | – |
| COc1ncccc1-n1c(Cl)nc(Cl)c1-c1c(F)cccc1F [compound 616] | 98 | 99 | 100 | 0 | 0 | 0 | 99 | – |
| COc1cc(F)c(-n2nnc(Cl)c2-c2ccc(Cl)cc2)c(F)c1 [compound 478] | 96 | 97 | 100 | 0 | 93 | 0 | 93 | – |
| Fc1cccc(F)c1-c1c(Br)nc(Br)n1-c1cccnc1Cl [compound 618] | 99 | 97 | 98 | 0 | 85 | 99 | 98 | – |
| Fc1ccc(-n2c(Br)nc(Cl)c2-c2ccc(Cl)c(F)c2)c(Cl)c1 [compound 328] | 94 | 98 | 100 | 0 | 98 | 9 | 95 | – |
| Cc1nc(C)n(-c2c(F)cc(F)cc2F)c1-c1ccc(Cl)cc1 [compound 308] | – | – | – | – | – | – | – | Test I disease control rating [1, 8]: 41* %; Test J disease control rating [2, 8]: 0* %; Test C disease control rating [3, 8]: 99* %; Test F disease control rating [4, 8]: 0* %; Test D disease control rating [5, 8]: 100* %; Test H disease control rating [6, 8]: 11* %; Test G disease control rating [7, 8]: 88* % |
| COc1cc(OC)cc(-c2c(Br)nc(C)n2-c2c(F)cc([N+](=O)[O-])cc2F)c1 [compound 651] | 95 | 79 | 97 | 60 | 0 | 0 | 97 | – |
| COc1ccc(-n2c(Cl)nc(C)c2-c2c(F)cccc2F)cn1 [compound 718] | 100 | 100 | 100 | 97 | 100 | 99 | 100 | – |
| COc1cc(F)c(-c2c(Cl)nc(Br)n2-c2cccc(Cl)c2)c(F)c1 [compound 483] | 98 | 100 | 100 | 0 | 99 | 32 | 94 | – |
| Fc1ccc(-n2c(Br)nc(Br)c2-c2ccc(Cl)c(F)c2)c(Cl)c1 [compound 301] | 91 | 96 | 100 | 0 | 94 | 6 | 95 | – |
| Fc1cc(-n2c(Br)nc(Br)c2-c2c(F)ccc(F)c2Cl)ccc1Cl [compound 459] | – | – | – | – | – | – | – | Test I disease control rating ([1]; 40 ppm (marked *)): 98* %; Test J disease control rating ([2]; 40 ppm (marked *)): 98* %; Test C disease control rating ([3]; 40 ppm (marked *)): 99* %; Test F disease control rating ([4]; 40 ppm (marked *)): 0* %; Test D disease control rating ([5]; 40 ppm (marked *)): 63* %; Test H disease control rating ([6]; 40 ppm (marked *)): 9* %; Test G disease control rating ([7]; 40 ppm (marked *)): 95* % |
| CC(=O)Nc1ccc(-n2c(Cl)nc(Cl)c2-c2c(F)cccc2F)cc1Cl [compound 636] | – | – | – | – | – | – | – | Test I disease control rating ([1]; 40 ppm (marked *)): 52* %; Test J disease control rating ([2]; 40 ppm (marked *)): 0* %; Test C disease control rating ([3]; 40 ppm (marked *)): 90* %; Test F disease control rating ([4]; 40 ppm (marked *)): 0* %; Test D disease control rating ([5]; 40 ppm (marked *)): 24* %; Test H disease control rating ([6]; 40 ppm (marked *)): 0* %; Test G disease control rating ([7]; 40 ppm (marked *)): 95* % |
| COc1cc(F)c(-c2c(O)nc(C)n2-c2ccc(Cl)cc2)c(F)c1 [compound 672] | 0 | 0 | 96 | 0 | 0 | 0 | 87 | – |

From US20110045101A1, “FUNGICIDAL SUBSTITUTED AZOLES” (E.I. Du Pont De Nemours and Company, priority 2009, published 2011)
